In the supplement of paper PMC10307832:

Assays:
Experiment in all cases: relative viability (nuclei count vs DMSO), 5 days (fraction); higher = more cells survive
201T = system: 201T
In short: (§1)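 Lung cancer cell lines, seeded in 1536-well plates, were treated the following day by pin tool with a single drug or with five library-drug doses (not always all listed) in √10 steps on top of a fixed anchor-drug dose. Cells were fixed and nuclei stained in one step after 5 days, and nuclei were counted. Relative viability is the nuclei count for treated wells divided by that for vehicle wells, reported as medians of duplicate plates.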

A-427 = system: A-427
In short: as §1

COR-L23 = system: COR-L23
In short: as §1

H3255 = system: H3255
In short: as §1

HCC-44 = system: HCC-44
In short: as §1

LCLC-97TM1 = system: LCLC-97TM1
In short: as §1

LK-2 = system: LK-2
In short: as §1

LU99A = system: LU99A
In short: as §1

NCI-H1563 = system: NCI-H1563
In short: as §1

NCI-H1650 = system: NCI-H1650
In short: as §1

NCI-H1793 = system: NCI-H1793
In short: as §1

NCI-H1944 = system: NCI-H1944
In short: as §1

NCI-H2347 = system: NCI-H2347
In short: as §1

NCI-H23 = system: NCI-H23
In short: as §1

NCI-H460 = system: NCI-H460
In short: as §1

NCI-H650 = system: NCI-H650
In short: as §1

NCI-H727 = system: NCI-H727
In short: as §1

NCI-H838 = system: NCI-H838
In short: as §1

PC-14 = system: PC-14
In short: as §1

PC-3 [JPC-3] = system: PC-3 [JPC-3]
In short: as §1

SW 1573 = system: SW 1573
In short: as §1

`O=C(O)c1ccc(-c2c[nH]c3ncc(-c4ccccc4)cc23)cc1C1CCCC1` + CS(=O)(=O)CCNCc1ccc(-c2ccc3ncnc(Nc4ccc(OCc5cccc(F)c5)c(Cl)c4)c3c2)o1 [Lapatinib] (partner 2 µM) was tested, and the relative viability (201T; first compound 0.04 µM) was 0.966, the relative viability (201T; first compound 0.1265 µM) was 1.06 and the relative viability (201T; first compound 0.4 µM) was 1.01. For the same molecule, the relative viability (201T; first compound 1.265 µM) was 0.988, the relative viability (A-427; first compound 0.04 µM) was 0.965 and the relative viability (A-427; first compound 0.1265 µM) was 1.06. For the same molecule, the relative viability (A-427; first compound 0.4 µM) was 0.986, the relative viability (A-427; first compound 1.265 µM) was 0.935 and the relative viability (COR-L23; first compound 0.04 µM) was 0.89. The relative viability (COR-L23; first compound 0.1265 µM) was 1.09, the relative viability (COR-L23; first compound 0.4 µM) was 1.01 and the relative viability (COR-L23; first compound 1.265 µM) was 0.654. The relative viability (H3255; first compound 0.04 µM) was 0.24, the relative viability (H3255; first compound 0.1265 µM) was 0.231 and the relative viability (H3255; first compound 0.4 µM) was 0.26. For the same molecule, the relative viability (H3255; first compound 1.265 µM) was 0.275, the relative viability (HCC-44; first compound 0.04 µM) was 0.959 and the relative viability (HCC-44; first compound 0.1265 µM) was 1.02. For the same molecule, the relative viability (HCC-44; first compound 0.4 µM) was 1.1, the relative viability (HCC-44; first compound 1.265 µM) was 0.913 and the relative viability (LCLC-97TM1; first compound 0.04 µM) was 1.34. For the same molecule, the relative viability (LCLC-97TM1; first compound 0.1265 µM) was 1.06, the relative viability (LCLC-97TM1; first compound 0.4 µM) was 0.922 and the relative viability (LCLC-97TM1; first compound 1.265 µM) was 0.717. It also gave a relative viability (LK-2; first compound 0.04 µM) of 0.968, a relative viability (LK-2; first compound 0.1265 µM) of 0.902 and a relative viability (LK-2; first compound 0.4 µM) of 0.744. For the same molecule, the relative viability (LK-2; first compound 1.265 µM) was 0.934, the relative viability (LU99A; first compound 0.04 µM) was 0.972 and the relative viability (LU99A; first compound 0.1265 µM) was 1.2. For the same molecule, the relative viability (LU99A; first compound 0.4 µM) was 0.954, the relative viability (LU99A; first compound 1.265 µM) was 0.792 and the relative viability (NCI-H1563; first compound 0.04 µM) was 1.07. The relative viability (NCI-H1563; first compound 0.1265 µM) was 0.939, the relative viability (NCI-H1563; first compound 0.4 µM) was 0.933 and the relative viability (NCI-H1563; first compound 1.265 µM) was 0.968. The relative viability (NCI-H1650; first compound 0.04 µM) was 0.731, the relative viability (NCI-H1650; first compound 0.1265 µM) was 0.758 and the relative viability (NCI-H1650; first compound 0.4 µM) was 0.725. It also gave a relative viability (NCI-H1650; first compound 1.265 µM) of 0.529, a relative viability (NCI-H1793; first compound 0.04 µM) of 0.897 and a relative viability (NCI-H1793; first compound 0.1265 µM) of 1.34. For the same molecule, the relative viability (NCI-H1793; first compound 0.4 µM) was 0.969, the relative viability (NCI-H1793; first compound 1.265 µM) was 0.71 and the relative viability (NCI-H1944; first compound 0.04 µM) was 0.695. The relative viability (NCI-H1944; first compound 0.1265 µM) was 1, the relative viability (NCI-H1944; first compound 0.4 µM) was 0.623 and the relative viability (NCI-H1944; first compound 1.265 µM) was 0.736. For the same molecule, the relative viability (NCI-H2347; first compound 0.04 µM) was 0.96, the relative viability (NCI-H2347; first compound 0.1265 µM) was 0.933 and the relative viability (NCI-H2347; first compound 0.4 µM) was 0.9. It also gave a relative viability (NCI-H2347; first compound 1.265 µM) of 0.881, a relative viability (NCI-H23; first compound 0.04 µM) of 1.12 and a relative viability (NCI-H23; first compound 0.1265 µM) of 0.894. It also gave a relative viability (NCI-H23; first compound 0.4 µM) of 0.919, a relative viability (NCI-H23; first compound 1.265 µM) of 0.752 and a relative viability (NCI-H460; first compound 0.04 µM) of 0.897. The relative viability (NCI-H460; first compound 0.1265 µM) was 1.03, the relative viability (NCI-H460; first compound 0.4 µM) was 0.801 and the relative viability (NCI-H460; first compound 1.265 µM) was 0.782. It also gave a relative viability (NCI-H650; first compound 0.04 µM) of 0.712, a relative viability (NCI-H650; first compound 0.1265 µM) of 1.26 and a relative viability (NCI-H650; first compound 0.4 µM) of 0.639. It also gave a relative viability (NCI-H650; first compound 1.265 µM) of 0.561, a relative viability (NCI-H727; first compound 0.04 µM) of 0.955 and a relative viability (NCI-H727; first compound 0.1265 µM) of 1. The relative viability (NCI-H727; first compound 0.4 µM) was 0.876, the relative viability (NCI-H727; first compound 1.265 µM) was 1.16 and the relative viability (NCI-H838; first compound 0.04 µM) was 0.92. The relative viability (NCI-H838; first compound 0.1265 µM) was 1.4, the relative viability (NCI-H838; first compound 0.4 µM) was 1.11 and the relative viability (NCI-H838; first compound 1.265 µM) was 0.915. It also gave a relative viability (PC-14; first compound 0.04 µM) of 0.304, a relative viability (PC-14; first compound 0.1265 µM) of 0.391 and a relative viability (PC-14; first compound 0.4 µM) of 0.339. It also gave a relative viability (PC-14; first compound 1.265 µM) of 0.302, a relative viability (PC-3 [JPC-3]; first compound 0.04 µM) of 0.51 and a relative viability (PC-3 [JPC-3]; first compound 0.1265 µM) of 0.489. For the same molecule, the relative viability (PC-3 [JPC-3]; first compound 0.4 µM) was 0.466, the relative viability (PC-3 [JPC-3]; first compound 1.265 µM) was 0.459 and the relative viability (SW 1573; first compound 0.04 µM) was 1.15. For the same molecule, the relative viability (SW 1573; first compound 0.1265 µM) was 1.39, the relative viability (SW 1573; first compound 0.4 µM) was 1.14 and the relative viability (SW 1573; first compound 1.265 µM) was 1.09.
